In patent US5646173A, “Tricyclic pyrrole derivatives useful as 5-HT selective agents” (Hoffmann-La Roche Inc., priority 1993, dated 1997):
Structures can show the parent of a compound that is named as a salt. Where two headings read alike, the source gives them in different places.

Assays:
5HT2C receptor [1] = target: T1, 5HT2C receptor (Sus scrofa, UniProt K7GSR7); assay: 3H-mesulergine binding assay (Method I b)
T1 construct: from tissue
T1 sequence (K7GSR7 1-457): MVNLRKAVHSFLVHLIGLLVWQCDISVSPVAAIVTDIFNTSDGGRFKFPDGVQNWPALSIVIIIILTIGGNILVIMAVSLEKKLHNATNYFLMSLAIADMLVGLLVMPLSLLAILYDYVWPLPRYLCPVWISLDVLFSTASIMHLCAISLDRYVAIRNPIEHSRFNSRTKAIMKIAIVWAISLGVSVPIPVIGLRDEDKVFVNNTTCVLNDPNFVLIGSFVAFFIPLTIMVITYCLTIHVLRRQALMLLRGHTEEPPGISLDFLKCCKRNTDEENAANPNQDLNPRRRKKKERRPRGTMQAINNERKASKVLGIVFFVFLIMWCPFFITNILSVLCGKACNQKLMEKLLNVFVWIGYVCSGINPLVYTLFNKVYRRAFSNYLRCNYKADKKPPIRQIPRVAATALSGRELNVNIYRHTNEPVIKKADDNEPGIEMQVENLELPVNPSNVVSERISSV
Procedure: (§1) The binding of the compounds of formula I in accordance with the invention to serotonin receptors was determined in vitro by standard methods. The preparations were investigated in accordance with the assays given hereinafter:
b) For the binding to the 5HT2C receptor in accordance with the ^3 H-mesulergine binding assay according to the method of A. Pazos et al., Europ. J. Pharmacol. 106, 539-546 or. D. Hoyer, Receptor Research 8, 59-81 (1988).

5HT2A receptor [2] = target: T2, 5HT2A receptor (Rattus norvegicus, UniProt P14842); assay: biochemical; type: binding
T2 construct: from tissue; host or cells: rat frontal cortex membranes (inferred from the cited method)
T2 sequence (P14842 whole entry): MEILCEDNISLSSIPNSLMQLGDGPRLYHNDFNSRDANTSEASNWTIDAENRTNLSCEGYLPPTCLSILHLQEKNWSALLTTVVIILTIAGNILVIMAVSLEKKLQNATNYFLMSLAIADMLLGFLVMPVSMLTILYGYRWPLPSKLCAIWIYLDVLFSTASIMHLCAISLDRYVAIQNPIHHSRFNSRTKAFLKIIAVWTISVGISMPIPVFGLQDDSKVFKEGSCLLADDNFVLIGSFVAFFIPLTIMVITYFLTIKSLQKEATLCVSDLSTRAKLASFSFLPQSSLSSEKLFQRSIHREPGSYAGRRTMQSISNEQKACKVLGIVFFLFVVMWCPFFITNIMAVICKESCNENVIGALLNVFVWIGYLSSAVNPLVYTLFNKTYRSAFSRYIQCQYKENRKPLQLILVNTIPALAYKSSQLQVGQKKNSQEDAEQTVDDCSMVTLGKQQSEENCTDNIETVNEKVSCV
Procedure: as §1
c) For the binding to the 5HT2A receptor in accordance with the ^3 H-ketanserine binding assay according to the method of J. E. Leysen, Molecular Pharmacology 21, 301-304 (1981).

5HT1A receptor = assay: 3H-8-OH-DPAT binding assay (Method I a); details: read-out: IC50, test method a
Procedure: The binding of the compounds of formula I in accordance with the invention to serotonin receptors was determined in vitro by standard methods. The preparations were investigated in accordance with the assays given hereinafter: […]

5HT2C receptor [3] = target: T3, 5HT2C receptor (Rattus norvegicus, UniProt P08909); assay: [3H]-5-HT binding assay (Method II b); set-up: expressed in transfected cells; host or cells: clonal 5-HT1C cell line
T3 sequence (P08909 33-460): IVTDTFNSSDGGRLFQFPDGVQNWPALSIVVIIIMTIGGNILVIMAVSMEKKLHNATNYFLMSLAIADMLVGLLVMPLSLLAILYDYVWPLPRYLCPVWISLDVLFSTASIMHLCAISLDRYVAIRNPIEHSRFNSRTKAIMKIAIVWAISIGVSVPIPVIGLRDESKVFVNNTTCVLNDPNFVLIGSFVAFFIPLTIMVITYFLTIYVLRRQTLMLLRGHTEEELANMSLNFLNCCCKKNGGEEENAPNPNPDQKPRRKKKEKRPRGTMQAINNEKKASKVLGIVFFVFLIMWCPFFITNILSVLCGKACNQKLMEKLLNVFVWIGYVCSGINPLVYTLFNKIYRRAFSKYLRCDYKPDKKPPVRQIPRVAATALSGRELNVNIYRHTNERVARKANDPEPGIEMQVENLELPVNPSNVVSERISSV
Description: b) For the binding to the 5HT2C receptor in accordance with the [3H]-5-HT binding assay according to the method of S. J. Peroutka et al., Brain Research 584, 191-196 (1992).
(§2) The pki values (pki =-log^10 Ki) of the test substances are given. […] [L] is the concentration of ligand and the KD value is the dissociation constant of the ligand.

5HT2A receptor [4] = target: T4, 5HT2A receptor (Homo sapiens, UniProt P28223); assay: [3H]-DOB binding assay (Method II c)
T4 construct: expressed in transfected cells; host or cells: transfected mammalian cells (inferred from the cited method)
T4 sequence (P28223 whole entry): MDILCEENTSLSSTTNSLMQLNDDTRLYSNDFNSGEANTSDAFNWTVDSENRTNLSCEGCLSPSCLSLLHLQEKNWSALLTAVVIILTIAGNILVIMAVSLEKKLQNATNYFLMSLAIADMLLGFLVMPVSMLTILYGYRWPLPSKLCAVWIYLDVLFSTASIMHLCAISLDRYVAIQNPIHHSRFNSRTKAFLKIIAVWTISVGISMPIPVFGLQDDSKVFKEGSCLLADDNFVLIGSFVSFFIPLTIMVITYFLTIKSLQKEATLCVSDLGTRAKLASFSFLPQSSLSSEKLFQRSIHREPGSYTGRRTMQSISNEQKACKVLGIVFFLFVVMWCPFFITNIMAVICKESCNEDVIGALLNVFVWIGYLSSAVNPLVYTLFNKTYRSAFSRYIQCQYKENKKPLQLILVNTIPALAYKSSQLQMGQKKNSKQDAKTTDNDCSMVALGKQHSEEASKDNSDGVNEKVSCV
Description: c) For the binding to the 5HT2A receptor in accordance with the [3H]-DOB binding assay according to the method of T. Branchek et al., Molecular Pharmacology 38, 604-609 (1990).
as §2

human-5HT1A receptors = target: T5, human-5HT1A receptors (Homo sapiens, UniProt P08908); assay: [3H]-5-HT displacement on recombinant human 5HT1A receptors expressed in 3T3 cells of mice (Method II a); type: binding
T5 construct: expressed in transfected cells; host or cells: mouse 3T3 cells
T5 sequence (P08908 1-422): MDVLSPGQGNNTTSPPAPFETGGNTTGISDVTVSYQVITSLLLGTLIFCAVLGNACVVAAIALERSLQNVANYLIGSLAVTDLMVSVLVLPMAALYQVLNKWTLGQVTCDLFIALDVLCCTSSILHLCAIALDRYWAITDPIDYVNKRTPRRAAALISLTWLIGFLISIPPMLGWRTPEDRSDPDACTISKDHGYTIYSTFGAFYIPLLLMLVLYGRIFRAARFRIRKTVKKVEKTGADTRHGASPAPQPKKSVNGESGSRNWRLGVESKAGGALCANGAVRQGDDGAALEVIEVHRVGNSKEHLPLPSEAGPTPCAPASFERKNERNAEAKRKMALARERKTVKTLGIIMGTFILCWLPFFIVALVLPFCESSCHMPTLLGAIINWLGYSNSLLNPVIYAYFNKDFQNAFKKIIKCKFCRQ
Description: [L] is the concentration of ligand and the KD value is the dissociation constant of the ligand.

[5] = 5HT2C, 3H-mesulergine, Method I, read-out: IC50, test method b
[6] = 5HT2C, [3H]-5-HT, Method II, read-out: pki, test method b (converted)

Compound | IC50 (5HT2C receptor [1]) [nM] | IC50 (5HT2A receptor [2]) [nM] | IC50 (5HT1A receptor) [nM] | further results
CC(N)Cn1ccc2c1-c1cc(Cl)ccc1C2 (racemic) [Example 21, (RS)-2-(7-chloro-1,4-dihydro-indeno[1,2-b]pyrrol-1-yl)-1-methyl-ethylaminefumarate (1:0.5)] | 56.6 | 2540 | 1350 | –
COc1ccc2c(c1)-c1c(ccn1CC(C)N)C2 (racemic) [Example 22, (RS)-2-(7-methoxy-1,4-dihydro-indeno[1,2-b]pyrrol-1-yl)-1-methyl-ethylamine fumarate (1:0.5)] | 30.4 | 1400 | 1590 | –
CC(N)Cn1ccc2c1-c1ccccc1OC2 (racemic) [Example 34, (RS)-1-(1,4-dihydro-[1]benzopyrano-[4,3-b]pyrrol-1-yl)-1-methyl-ethylaminefumarate (1:0.5)] | – | 2640 | 1620 | IC50 (5HT2C receptor [1]; [5]): 107 nM
CC(N)Cn1ccc2c1-c1cccc(Cl)c1C2 (racemic) [Example 37, (RS)-2-(5-chloro-1,4-dihydro-indeno[1,2-b]pyrrol-1-yl)-1-methyl-ethylaminefumarate (1:0.5)] | – | – | – | Ki (5HT2C receptor [3]; [6]): 35.5 nM; Ki (5HT2A receptor [4]): 309 nM; Ki (human-5HT1A receptors): 4790 nM
Cc1cccc2c1Cc1ccn(CC(C)N)c1-2 (racemic) [Example 50, (RS)-2-(5-methyl-1,4-dihydro-indeno[1,2-b]pyrrol-1-yl)-1-methyl-ethylaminefumarate (1:0.5)] | – | – | – | Ki (5HT2C receptor [3]): 107 nM; Ki (5HT2A receptor [4]): 447 nM; Ki (human-5HT1A receptors; human 5HT1A, [3H]-5-HT (1 nM), 3T3 cell membranes, Method II, read-out: pki, test method a (converted)): 2400 nM
CC(N)Cn1ccc2c1-c1ccc(Cl)cc1C2 (racemic) [Example 53, (RS)-2-(6-chloro-1,4-dihydro-indeno[1,2-b]pyrrol-1-yl)-1-methyl-ethylaminefumarate (1:0.5)] | 308 | 11300 | 1100 | –
COc1ccc2c(c1)Cc1ccn(CC(C)N)c1-2 (racemic) [Example 55, (RS)-2-(6-methoxy-1,4-dihydro-indeno[1,2-b]pyrrol-1-yl)-1-methyl-ethylamine fumarate (1:0.5)] | 371 | 8350 | 1260 | –
CC(N)Cn1ccc2c1-c1ccccc1SC2 (racemic) [Example 64] | – | 773 | 384 | IC50 (5HT2C receptor [1]; [5]): 85.4 nM
COc1cccc2c1-c1c(ccn1CC(C)N)C2 (racemic) [Example 67, (RS)-2-(8-methoxy-1,4-dihydro-indeno[1,2-b]pyrrol-1-yl)-1-methyl-ethylamine fumarate (1:0.5)] | 146 | 1070 | 1750 | –
CC(N)Cn1ccc2c1-c1ccccc1C2c1ccccc1 (racemic) [Example 69, (2RS/4RS)-2-(4-phenyl-1,4-dihydro-indeno[1,2-b]pyrrol-1-yl)-1-methyl-ethylamine fumarate (1:0.86)] | 143 | 854 | 3460 | –
O=c1ccc2[nH]cc(C3=CCNCC3)c2[nH]1 [CP 93129, reference compound] | – | 29200 | 1620 | –
COc1ccc2ccc3ccn(C[C@H](C)N)c3c2c1 [Example 7, (S)-2-(8-methoxy-1H-benz[g]indol-1-yl)-1-methyl-ethylamine fumarate (1:0.5)] | 24 | 1200 | 2160 | –
CCc1ccc2c(c1)-c1c(ccn1C[C@H](C)N)C2(C)C [Example 8, (S)-2-(7-ethyl-4,4-dimethyl-1,4-dihydro-indeno[1,2-b]pyrrol-1-yl)-1-methyl-ethylamine fumarate (1:1)] | – | – | – | Ki (5HT2C receptor [3]; [6]): 2.34 nM; Ki (5HT2A receptor [4]): 66.1 nM; Ki (human-5HT1A receptors): 4570 nM
COc1ccc2c(c1)-c1c(ccn1CCN)C2 [Example 23, 2-(7-methoxy-1,4-dihydro-indeno[1,2-b]pyrrol-1-yl)-ethylamine fumarate (1:1)] | 45.2 | 3340 | 347 | –
COc1ccc2c(c1)-c1c(ccn1C[C@@H](C)N)C2 [Example 28, (R)-2-(7-methoxy-1,4-dihydro-indeno[1,2-b]pyrrol-1-yl)-1-methyl-ethylaminefumarate (1:0.5)] | 78.7 | 1630 | 1070 | –
COc1ccc2c(c1)-c1c(ccn1C[C@@H](C)N)CC2 [Example 30, (R)-2-(4,5-dihydro-8-methoxy-1H-benz[g]indol-1-yl)-1-methyl-ethylamine fumarate (1:1)] | 58.1 | 479 | 298 | –
COc1ccc2ccc3ccn(C[C@@H](C)N)c3c2c1 [Example 31, (R)-2-(8-methoxy-1H-benz[g]indol-1-yl)-1-methyl-ethylamine fumarate (1:0.5)] | 28.1 | 874 | 337 | –
COc1ccc2ccc3ccn(CCN)c3c2c1 [Example 32, 2-(8-methoxy-1H-benz[g]indol-1-yl)-ethylamine fumarate (1:1)] | 18 | 1670 | 139 | –
COc1ccc2c(c1)-c1c(ccn1C(C)(C)N)CO2 [Example 54, (RS)1-(8-methoxy-1,4-dihydro[1]benzopyrano[4,3b]pyrrol1-yl)-1-methyl-ethylamine] | – | – | 825 | IC50 (5HT2C receptor [1]; [5]): 116 nM; IC50 (5HT2A receptor [2]; 5HT2A, 3H-ketanserine, Method I, read-out: IC50, test method c): 2590 nM
COc1ccc2c(c1)-c1c(ccn1CCN)CC2 [Example 59, 2-(4,5-dihydro-8-methoxy-1H-benz[g]indol-1-yl)-ethylamine fumarate (1:1)] | 23.8 | 1510 | 97 | –
CN1C[C@H](CNC(=O)OCc2ccccc2)C[C@@H]2c3cccc4c3c(cn4C)C[C@H]21 [Metergoline, reference compound] | 5.5 | – | – | –
COc1ccccc1N1CCN(CCCCN2C(=O)c3ccccc3C2=O)CC1 [NAN-190, reference compound] | 1800 | 581 | 0.56 | –
Cc1nc2ccccn2c(=O)c1CCN1CCC(C(=O)c2ccc(F)cc2)CC1 [Pirenperone, reference compound] | 37 | 2.9 | 2880 | –
COc1ccc2[nH]cc(C3=CCNCC3)c2c1 [RU 24969, reference compound] | – | – | 8 | –
Cc1nc2sccn2c(=O)c1CCN1CCC(=C(c2ccc(F)cc2)c2ccc(F)cc2)CC1 [Ritanserine, reference compound] | 37 | – | – | –
Clc1cccc(N2CCNCC2)c1 [mCPP, reference compound] | – | 319 | 227 | IC50 (5HT2C receptor [1]; [5]): 53 nM
